Results taken from patent US9862730B2, “Imidazothiadiazole derivatives as protease activated receptor 4 (PAR4) inhibitors for treating platelet aggregation” (BRISTOL-MYERS SQUIBB COMPANY, priority 2012, dated 2018).

The compounds below were run against PAR4 (Homo sapiens (Human), UniProt Q96RI0) (assay: FLIPR assay in PAR4-expressing HEK293 cells (PAR4 antagonist activity, calcium mobilization)). Conditions: FLIPR assay as described in Example A.
PAR4, sequence (Q96RI0 18-385): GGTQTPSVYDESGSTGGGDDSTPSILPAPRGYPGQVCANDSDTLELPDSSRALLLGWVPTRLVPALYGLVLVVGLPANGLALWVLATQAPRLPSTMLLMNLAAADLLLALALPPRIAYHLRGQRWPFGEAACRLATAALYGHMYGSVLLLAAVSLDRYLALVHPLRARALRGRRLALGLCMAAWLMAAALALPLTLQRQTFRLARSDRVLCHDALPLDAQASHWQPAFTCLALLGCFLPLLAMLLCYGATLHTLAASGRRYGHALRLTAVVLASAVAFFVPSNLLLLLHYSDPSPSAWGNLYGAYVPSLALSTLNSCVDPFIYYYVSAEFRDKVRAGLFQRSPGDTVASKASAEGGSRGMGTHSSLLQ
Format: cell-based
Description: The FLIPR assay is an exemplary in vitro assay for measuring the activity of the PAR4 antagonists of the present invention. In this assay, intracellular calcium mobilization is induced in PAR4 expressing cells by a PAR4 agonist and calcium mobilization is monitored. See, e.g., Example A.
HEK293 cells stably expressing PAR4 were generated by a standard method of transfection of human […] cDNA expression vector or by RAGE technology from Athersys Inc. (Cleveland, Ohio) and selected based on PAR4 protein expression of mRNA expression. […] These cells express endogenous PAR1 and can elicit calcium signal upon stimulation with PAR1 agonist peptide.
Counter screens for agonist activity and PAR1 antagonist activity were also performed. Briefly, HEK293 EBNA PAR4 clone 20664.1J cells were plated 24 hrs. prior to experiment in 384 well, Poly-D-Lysine coated, black, clear bottom plates (Greiner Bio-One, Monroe, N.C.). Cells were plated at 20,000 cells/well in 20 μl growth medium and incubated at 37° C. with 5% CO2 overnight. At time of assay, media was replaced with 40 μl 1× Hank's Buffered Saline Solution (HBSS) (with 10 mM HEPES) and 20 μl test compound also diluted in 1×HBSS buffer was added at various concentrations and 0.67% DMSO final concentration on the FDSS for agonist measurement. The cells were then incubated for 30 minutes at room temperature followed by addition of 20 μl of agonist peptide for antagonist measurement on the FDSS.
As indicated above, the FLIPR assay, an in vitro assay, measures the PAR4 antagonist activity of compounds tested as described in Example A.
With `CCc1cc(OCc2cccc(OCc3ccccc3)c2)c2cc(-c3cn4nc(OC)sc4n3)oc2c1` [Example 411, 6-(4-((3-(Benzyloxy)benzyl)oxy)-6-ethylbenzofuran-2-yl)-2-methoxyimidazo[2,1-b][1,3,4]thiadiazole] the IC50 was 4.53 nM.
`CCc1nn2cc(-c3nc4ccc(OCC5CC5)cc4o3)nc2s1` [Example 74] gave an IC50 of 681 nM.
For `COc1nn2cc(-c3nc4ccc(C)cc4s3)nc2s1` [Example 197], the IC50 was 1050 nM.
`CSc1nn2cc(-c3cc4cccc(OC(F)(F)F)c4o3)nc2s1` [Example 70] gave an IC50 of 400 nM.
`COc1cc(OCc2cccc(OCc3ccc(I)cc3)c2)c2cc(-c3cn4nc(OC)sc4n3)oc2c1` [Example 391] gave an IC50 of 3.03 nM.
For `C#Cc1cc(OCc2cccc(OCc3ccccc3)c2)c2cc(-c3cn4nc(OC)sc4n3)oc2c1` [Example 418], the IC50 was 9.37 nM.
`CC(F)c1nn2cc(-c3cc4ccc(OCc5ccccc5)cc4o3)nc2s1` (stereo not drawn) [Example 246] gave an IC50 of 318 nM.
`COc1cccc2oc(-c3cn4nc(SC)sc4n3)nc12` [Example 149] gave an IC50 of 13.6 nM.
Compound `CCOC(=O)COc1cccc2cc(-c3cn4nc(CC)sc4n3)oc12` [Example 62] has an IC50 of 587 nM.
Compound `COc1cc2oc(-c3cn4nc(Br)sc4n3)cc2cc1Br` [Example 275] has an IC50 of 23.1 nM.
For `CC(F)(F)c1nn2cc(-c3nc4c(Cl)cccc4s3)nc2s1` [Example 198], the IC50 was 4720 nM.
`CCc1nn2cc(-c3nc4cc(Cl)ccc4o3)nc2s1` [Example 45] was tested, and the IC50 was 135 nM.
In the case of `Cc1ccc2nc(-c3cn4nc(C(C)(F)F)sc4n3)sc2c1` [Example 199], the IC50 is reported as 2680 nM.
`CSc1nn2cc(-c3nc4ccc(N)cc4o3)nc2s1` [Example 176] was tested, and the IC50 was 701 nM.
`COc1cc(OCc2cccc(OCc3ccc(F)cc3Cl)c2)c2cc(-c3cn4nc(OC)sc4n3)oc2c1` [Example 369] was tested, and the IC50 was 2.98 nM.
`COc1cc(OCc2cccc(OCc3ccc(Cl)cc3F)c2)c2cc(-c3cn4nc(OC)sc4n3)oc2c1` [Example 323] showed an IC50 of 1.48 nM.
`COc1cc(OCc2cccc(OCc3ccccc3-c3ccccc3)c2)c2cc(-c3cn4nc(OC)sc4n3)oc2c1` [Example 317] was tested, and the IC50 was 8.36 nM.
`CCc1nn2cc(-c3nc4c(C)cccc4o3)nc2s1` [Example 42] showed an IC50 of 462 nM.
For `COc1nn2cc(-c3cc4ccc(C)c(C)c4o3)nc2s1` [Example 102], the IC50 was 542 nM.
Compound `CSc1nn2cc(-c3cc4c(OCc5cccnc5)cccc4o3)nc2s1` [Example 216, 2-(Methylthio)-6-(4-(pyridin-3-ylmethoxy)benzofuran-2-yl) imidazo[2,1-b][1,3,4]thiadiazole] has an IC50 of 482 nM.
With `Cc1cc(C)c2cc(-c3cn4nc(Br)sc4n3)oc2c1` [Example 296] the IC50 was 106 nM.
Work on `COc1ccc2cc(-c3cn4nc(SC)sc4n3)oc2c1` [Example 20] yielded an IC50 of 3.53 nM.
`COc1nn2cc(-c3cc4c(C(F)(F)F)cc(C)nc4o3)nc2s1` [Example 305] was tested, and the IC50 was 13.6 nM.
`Clc1nccc2oc(-c3cn4nc(Br)sc4n3)cc12` [Example 222, 2-(2-Bromoimidazo[2,1-b][1,3,4]thiadiazol-6-yl)-4-chlorofuro[3,2-c]pyridine] showed an IC50 of 464 nM.
Compound `CSc1nn2cc(-c3nc4ccc(OCCF)cc4o3)nc2s1` [Example 118, 6-(2-Fluoroethoxy)-2-(2-(methylthio)imidazo[2,1-b][1,3,4]thiadiazol-6-yl)benzo[d]oxazole] has an IC50 of 191 nM.
`COc1cc(OC)c2cc(-c3cn4nc(C(C)(F)F)sc4n3)oc2c1Br` [Example 225, 6-(7-Bromo-4,6-dimethoxybenzofuran-2-yl)-2-(1,1-difluoroethyl)imidazo[2,1-b][1,3,4]thiadiazole] gave an IC50 of 300 nM.
`CSc1nn2cc(-c3nc4ccc(OCc5ccncc5)cc4o3)nc2s1` [Example 146] showed an IC50 of 911 nM.
In the case of `CSc1nn2cc(-c3nc4cc(C(C)(C)C)ccc4o3)nc2s1` [Example 132], the IC50 is reported as 87.2 nM.
Compound `CCOc1cc(OC)cc2oc(-c3cn4nc(OC)sc4n3)cc12` [Example 206] has an IC50 of 2.01 nM.
Work on `CSc1nn2cc(-c3nc4c(OCc5cc(F)cc(F)c5)cccc4o3)nc2s1` [Example 171] yielded an IC50 of 48.1 nM.
`CC(F)(F)c1nn2cc(-c3cc4ccc(F)cc4o3)nc2s1` [Example 231] showed an IC50 of 22.3 nM.
In the case of `Fc1cccc2cc(-c3cn4nc(Br)sc4n3)oc12` [Example 259], the IC50 is reported as 323 nM.
Compound `COc1cc2oc(-c3cn4nc(C(C)(F)F)sc4n3)cc2cc1Br` [Example 272] has an IC50 of 29.1 nM.
`CSc1nn2cc(-c3cc4c(F)cccc4o3)nc2s1` [Example 262] was tested, and the IC50 was 4.28 nM.
`COCCOc1cccc2oc(-c3cn4nc(SC)sc4n3)cc12` [Example 268] showed an IC50 of 21.8 nM.
`CC(F)(F)c1nn2cc(-c3nc4ccccc4s3)nc2s1` [Example 185, 2-(2-(1,1-Difluoroethyl)imidazo[2,1-b][1,3,4]thiadiazol-6-yl)benzo[d]thiazole] showed an IC50 of 626 nM.
`CSc1nn2cc(-c3nc4c(OC[C@@H]5CCCN5C(=O)[C@H](NC(=O)OC(C)(C)C)c5ccccc5)cccc4o3)nc2s1` [Example 334, tert-Butyl ((R)-2-((S)-2-(((2-(2-(methylthio)imidazo[2,1-b][1,3,4]thiadiazol-6-yl)benzo[d]oxazol-4-yl)oxy)methyl)pyrrolidin-1-yl)-2-oxo-1-phenylethyl)carbamate] showed an IC50 of 2360 nM.
`CCc1nn2cc(-c3cc4cccc(OCC#N)c4o3)nc2s1` [Example 53] gave an IC50 of 149 nM.
`COc1cc(OC)c2cc(-c3cn4nc(C(C)(F)F)sc4n3)oc2c1` [Example 242] gave an IC50 of 50.5 nM.
For `COc1nn2cc(-c3cc4ccc(F)cc4o3)nc2s1` [Example 96], the IC50 was 7.92 nM.
Work on `CCCOc1ccc2nc(-c3cn4nc(CC)sc4n3)oc2c1` [Example 51] yielded an IC50 of 394 nM.
For `COc1cc(OCc2cccc(OCc3cccc(Cl)c3)c2)c2cc(-c3cn4nc(OC)sc4n3)oc2c1` [Example 349], the IC50 was 0.32 nM.
For `COc1cc(OC)c2nc(-c3cn4nc(SC)sc4n3)sc2c1` [Example 189], the IC50 was 2200 nM.
With `COc1cc(OCc2cccc(OCc3ccccc3OC(F)(F)F)c2)c2cc(-c3cn4nc(OC)sc4n3)oc2c1` [Example 322] the IC50 was 9.97 nM.
`CCc1nn2cc(-c3cc4cccc(O)c4o3)nc2s1` [Example 59] was tested, and the IC50 was 288 nM.
With `COc1nn2cc(-c3nc4cc(Cl)ccc4o3)nc2s1` [Example 130] the IC50 was 41.3 nM.
With `CSc1nn2cc(-c3cc4cccc(F)c4o3)nc2s1` [Example 257] the IC50 was 50.2 nM.
Work on `C[C@H](F)c1nn2cc(-c3cc4c(Cl)cc(Cl)cc4o3)nc2s1` [Example 213B, (S)-6-(4,6-Dichlorobenzofuran-2-yl)-2-(1-fluoroethyl)imidazo[2,1-b][1,3,4]thiadiazole] yielded an IC50 of 10.3 nM.
In the case of `Cc1nn2cc(-c3cc4ccccc4o3)nc2s1` [Example 41], the IC50 is reported as 18.6 nM.
In the case of `CSc1nn2cc(-c3cc4c(OCc5cccc(OCc6ccccc6)c5)cc(OC=O)cc4o3)nc2s1` [Example 425], the IC50 is reported as 12.4 nM.
Compound `COc1cc(Cl)cc(COc2cccc(COc3cc(OC)cc4oc(-c5cn6nc(OC)sc6n5)cc34)c2)c1` [Example 401] has an IC50 of 1.28 nM.
`CSc1nn2cc(-c3nc4c(OCc5ccc(C(F)(F)F)cc5)cccc4o3)nc2s1` [Example 155] was tested, and the IC50 was 301 nM.
Work on `Cc1ccc2cc(-c3cn4nc(C(C)(F)F)sc4n3)oc2c1` [Example 233] yielded an IC50 of 15.7 nM.
Work on `CCc1nn2cc(-c3nc4ccc(OC(C)C)cc4o3)nc2s1` [Example 87] yielded an IC50 of 450 nM.
With `CSc1nn2cc(-c3cc4cc(Cl)c(C)cc4o3)nc2s1` [Example 269] the IC50 was 74.5 nM.
`COc1cc(OCc2ccccc2)c2cc(-c3cn4nc(C(C)(F)F)sc4n3)oc2c1` [Example 265] was tested, and the IC50 was 28 nM.
In the case of `COc1cc(Br)cc2cc(-c3cn4nc(Br)sc4n3)oc12` [Example 286], the IC50 is reported as 276 nM.
Compound `Fc1ccc2nc(-c3cn4nc(Br)sc4n3)sc2c1` [Example 183, 2-(2-bromoimidazo[2,1-b][1,3,4]thiadiazol-6-yl)-6-fluorobenzo[d]thiazole] has an IC50 of 412 nM.
`COCOc1cccc2oc(-c3cn4nc(SC)sc4n3)nc12` [Example 163] showed an IC50 of 39.5 nM.
Compound `COc1cccc2sc(-c3cn4nc(SC)sc4n3)nc12` [Example 6, 4-Methoxy-2-(2-(methylthio)imidazo[2,1-b][1,3,4]thiadiazol-6-yl)benzo[d]thiazole] has an IC50 of 618 nM.
In the case of `COc1cc(OCc2cccc(OCc3ccccc3OC)c2)c2cc(-c3cn4nc(OC)sc4n3)oc2c1` [Example 309], the IC50 is reported as 1.22 nM.
For `CC(F)(F)c1nn2cc(-c3cc4c(OCc5ccccc5)cccc4o3)nc2s1` [Example 250], the IC50 was 267 nM.
Work on `CSc1nn2cc(-c3nc4cc(Cl)ccc4o3)nc2s1` [Example 125] yielded an IC50 of 206 nM.
For `COc1cc(OCc2cccc(OCc3c(Cl)cccc3Cl)c2)c2cc(-c3cn4nc(OC)sc4n3)oc2c1` [Example 368], the IC50 was 4.69 nM.
With `COc1cc2oc(-c3cn4nc([C@H](C)F)sc4n3)cc2cc1Cl` [270B] the IC50 was 3.37 nM.
For `COc1cc(OCc2cccc(OCc3ccc(C)c(C)c3)c2)c2cc(-c3cn4nc(OC)sc4n3)oc2c1` [Example 381], the IC50 was 2.77 nM.
In the case of `COc1cc(OCc2cccc(OCc3cc(C(F)(F)F)ccc3C)c2)c2cc(-c3cn4nc(OC)sc4n3)oc2c1` [Example 396], the IC50 is reported as 4.51 nM.
`CNc1nn2cc(-c3cc4ccccc4o3)nc2s1` [Example 69] showed an IC50 of 407 nM.
`CC(F)(F)c1nn2cc(-c3cc4c(OCc5cccc(OCc6ccccc6)c5)cc(OS(=O)(=O)C(F)(F)F)cc4o3)nc2s1` [Example 422] showed an IC50 of 698 nM.
